# Data published in patent US4956389A, “Compounds having calcium blocking activity” (priority 1982, dated 1990).
# Where “and” joins values, the source holds several entries; their conditions need not be identical. Equal values may be shown once. Read-outs that look alike come from different tables or passages of the source.
# Legend:
# [1] = test system: isolated guinea-pig atria; settings: papaverine with verapamil; cited from earlier work
# [2] = test system: kidney cells in newborn hamsters; assay: Inhibition of Ca2+-uptake in kidney cells in newborn hamsters; format: cell-based, hamster
# Experimental: Cells of kidneys of newborn hamsters have been washed and then resuspended several times in concentration of 5·10^6 /cc in the medium of the following composition:
# After 15 minutes of preincubation at 30° C., the reaction was made to begin by addition to the medium of ^45 CaCl2 1 mM (0.1μCi/cc). The concentrations at 0 period of time were the concentrations determined two minutes after the addition. The other controls were carried out after 5 minutes, 10 minutes, and 20 minutes. The determination of [Ca^2+ ] was carried out as in the preceding experiment.
# [3] = test system: mitochondria of liver of rats; assay: Inhibition of Ca2+-uptake in mitochondria of liver of rats; format: biochemical, rat; settings: 250 μM; 20° C.; control 14.3
# Experimental: The mitochondria prepared according to classical methods are diluted to a concentration of 1.5 mg/cc in a medium of incubation which has the following composition:
# After a period of 15 minutes of preincubation at 20° C. there was added ^45 CaCl2 (50 n mol/mg prot.).
# In a manner analogous to the preceding experiments, the concentrations determined after two minutes were called the concentration at 0 period of time. The other controls were determined after 5 minutes, after 10 minutes and after 15 minutes. For the determination of Ca^2+, the experiment was carried out in a manner analogous to the preceding experiments.
# The results are reported in Table 3 as the quantity of Ca transferred per mg of protein
# phosphodiesterases = settings: cited from earlier work
# calcium ion flows = settings: cited from earlier work
# [4] = test system: synaptosomes of the brain of rats; assay: Inhibition of the Ca2+-uptake in synaptosomes of the brain of rats; format: biochemical, rat; settings: 250 μM
# Experimental: The synaptosomes have been prepared from an homogenate of the brain of rats by centrifugation in the gradient of Filcoll at 23,500 rpm for a period of 30 minutes and diluted to 1.5 mg/cc in the medium constituted by:
# After 15 minutes of preincubation, ^45 CaCl2, final concentration 1 mM (0.2μCi/cc is added to the medium).
# The first determination has been carried out two minutes after the addition. […] After each period, the reaction has been stopped by centrifugation and the radioactivity has been determined in the supernatant as well as in the pellet. The latter had been denatured previously with PCA, neutralized and subsequently centrifuged.
# phosphodiesterase = assay: Inhibition of the phosphodiesterase activity (method of K. G. Nair); format: biochemical; settings: read-out: ID50 (inhibiting dose 50%); up to 10 mM
# Experimental: The inhibition of phosphodiesterase activity of YS 035 and of papaverine has been assessed according to the method of K. G. Nair (Biochemistry, 5, 150, 1966).
# It has been used a medium containing:
# 2.5 ml of buffer tris-HCl 0.1M pH 7.4;
# 50 μl CAMP "Sigma" (1 mg/ml);
# 5 μl Adenosin deaminase (2 mg/ml);
# 20 μl of alkaline phosphatase "Sigma" (2.6 mg/ml);
# 15 μl of phosphodiesterase (10 mg/ml).
# YS 035 has been added up to a final concentration of 100 mM and Papaverine to a concentration of 10 mM.
# rats = assay: Antagonistic effect to biochemical disturbances during the post-oligemic period in rats; format: in vivo, rat
# Experimental: Oligemia in rats is caused by simultaneous bilateral occlusion of the carotid arteries associated with a slight decrease (8-9 kPa) of blood pressure and is maintained for 60 minutes. After removal of the occlusion, the post-oligemic period is followed for several days. In this case, the observation is continued up to the third day, at the time during which the brain accumulation of Ca^++ ions reaches the maximum.
# The substances YS 035 or Nicardipine respectively, are administered to rats, 1, 5, 18, 24, 42 and 71 hours after having removed the carotid occlusion. The rats are sacrificed after 72 hours and the tissues are rapidly removed in order to determine their content of water, calcium and potassium.
# aorta of rabbits = assay: Antagonistic activity on the contractions produced by arachidonic acid on the aorta of rabbits, study in vitro; design: species or system rabbit; settings: for inhibition at 1 mg/kg: dose 1.0 mg·Kg^-1
# Experimental: The study has been carried out by comparison with Nicardipine using autologous blood as the perfusion liquid. The addition of 0.1 mg of arachidonate to the liquid induces an isometric contraction of the aorta which is registered by a transducer. […] This phenomenon is shown by the relaxation which follows the addition of arachidonate to the perfusion blood. This effect may be noted with 0.1 mg/kg of YS 035 and 1 mg/kg of Nicardipine.
# portions of the aorta = assay: Contraction of aorta portions by arachidonic acid after oral administration to rabbits (studies in vivo); design: species or system rabbit
# Experimental: Both substances YS 035 and Nicardipine have been administered orally for a period of three consecutive days to rabbits in such a manner that the last administration of each substance was carried out one hour prior to killing the animals. The portions of the aorta had then been incubated either in PRP as well as in the Krebs-Henseleit liquid.
compound,measurement,setting,value
COc1ccc(CCN(C)CCCC(C#N)(c2ccc(OC)c(OC)c2)C(C)C)cc1OC (centres unmarked) [verapamil],interaction on the slow entry flows sustained by calcium ions (in words),[1],mutually antagonistic
"COC(=O)C1=C(C)NC(C)=C(C(=O)OC)C1c1ccccc1[N+](=O)[O-] [Nifedipine, reference compound]",Ca2+-uptake,"[2]; 250 μM, 30° C., control 11.9",7.9 n g ions/mg prot/15'
same,percent change in Ca2+-uptake versus control at 250 µM,"[2]; Mesocricetus auratus, 0.25 h, 15 min",-33.6%
same,Ca2+-uptake,[3],9.5 n g ions/mg prot.
COc1ccc(Cc2nccc3cc(OC)c(OC)cc23)cc1OC [Papaverine],main biochemical action (in words),phosphodiesterases,inhibition of phosphodiesterases
same,effect on calcium ion flows (in words),calcium ion flows; at the lower concentrations,stimulation of calcium ion flows
same,concentration of antagonism on the calcium ion,calcium ion flows,about 10^-4 M
same,calcium antagonistic activity (in words),calcium ion flows; conclusion from literature,totally devoid of calcium antagonistic activity
same,interaction on the slow entry flows sustained by calcium ions (in words),[1],mutually antagonistic
same,inhibitory activity on the calcium uptake (in words),[4],completely devoid of calcium antagonistic activity
same,Ca2+-uptake,"[4]; 45CaCl2 1 mM, control 80 ± 7",79 ± 5 n g ions/mg prot/15 min
same,IC50,phosphodiesterase,40 µM
"COC(=O)C1=C(C)NC(C)=C(C(=O)OCCN(C)Cc2ccccc2)C1c1cccc([N+](=O)[O-])c1 (centres unmarked) [Nicardipine, reference compound]","Cerebral concentration, Ca++","rats; 3 mg·Kg^-1 P.O. 7×, 72 h, post-oligemic controls 28.2 ± 3.22",19.3 ± 4.92 mmol·Kg^-1 of dry substance
same,"Cerebral concentration, H2O","rats; 3 mg·Kg^-1 P.O. 7×, 72 h, post-oligemic controls 80.1 ± 0.37",79.2 ± 0.42%
same,"Cerebral concentration, K+","rats; 3 mg·Kg^-1 P.O. 7×, 72 h, post-oligemic controls 366.2 ± 12.58",368.5 ± 19.69 mmol·Kg^-1 of dry substance
same,intracellular accumulation of Ca++ ions (in words),"rats; rat, in vivo",much less significant
same,Contraction of the first portion of the aorta,aorta of rabbits; N = 4,38 ± 4.9 mm
same,inhibition at 0.01 mg/kg,"aorta of rabbits; Oryctolagus cuniculus, dose 0.01 mg·Kg^-1, read-out: Contraction of the second and third portion of the aorta, % Variation",6%
same,inhibition at 0.1 mg/kg,"aorta of rabbits; Oryctolagus cuniculus, dose 0.1 mg·Kg^-1, read-out: Contraction of the second and third portion of the aorta, % Variation",48 ± 15.5%
same,inhibition at 1 mg/kg,"aorta of rabbits; Oryctolagus cuniculus, read-out: Contraction of the second and third portion of the aorta, % Variation",162%
same,inhibition at 1 mg/kg,"aorta of rabbits; Oryctolagus cuniculus, second and third portion, read-out: % Variation, small contractions observed occasionally prior to relaxation (value in brackets)",84%
same,minimal effective dose,"aorta of rabbits; Oryctolagus cuniculus, autologous blood perfusion, 0.1 mg arachidonate, read-out: dose at which relaxation following the addition of arachidonate is noted",1 mg/kg
same,inhibitory effect on the contraction produced by the arachidonate (in words),aorta of rabbits; YS 035 compared with Nicardipine,comparable
same,"Amplitude of contraction, medium Krebs, individual values","portions of the aorta; 1 mg·Kg^-1 P.O., Krebs, controls 12 ± 2.3",-30 mm and -10 mm
same,"Amplitude of contraction, PRP, individual values","portions of the aorta; 1 mg·Kg^-1 P.O., PRP, controls 30 ± 8.0",+24 mm and +55 mm
same,site of action (in words),"portions of the aorta; aortic endothelial level, particularly PGI2",act directly on the synthesis of prostaglandin
